Measured values: patent publication US20240158355A1, “BET SUBFAMILY INHIBITORS AND METHODS USING SAME” (Baylor College of Medicine, priority 2021, published 2024)

What was measured:
[1] = molecular target: BRDT-BD1 (Homo sapiens (Human), UniProt Q58F21); experiment: AlphaScreen bromodomain proximity assay (competition with biotinylated (+)-JQ1), BRDT-BD1; format: binding; settings: NE: no effect at 10 μM
[2] = Metabolic stability assay in mouse liver microsomes; format: in vitro ADME; settings: in words
Experimental: Compounds 3-10, 15, 17, and 20-22 (2.0 μM) were incubated in the mouse or human liver microsomes (0.5 mg protein/mL) at 37° C. […] The reaction mixtures were centrifuged at rcf 15,000 for 15 min. […] The column temperature was maintained at 40° C. […] Q Exactive MS was operated in positive or negative mode with electrospray ionization.

[3] = molecular target: BRDT-BD2 (Homo sapiens (Human), UniProt Q58F21); experiment: AlphaScreen bromodomain proximity assay (competition with biotinylated (+)-JQ1), BRDT-BD2; format: binding

Row | SMILES | IC50 [1] | mouse microsomal stability [2] | IC50 [3]
1 | CC(=O)Nc1cccc(NC(=O)c2ccc3c(c2)c(-c2ccc(N)cc2C)nn3C)c1 [compound 21, N-(3-Acetamidophenyl)-3-(4-amino-2-methylphenyl)-1-methyl-1H-indazole-5-carboxamide] | > 10000 nM | high mouse microsomal stability | 14 nM
2 | COc1ccc(-c2ccc3c(c2)c(-c2ccc(N)cc2C)nn3C)cn1 [compound 80, 4-(5-(6-Methoxypyridin-3-yl)-1-methyl-1H-indazol-3-yl)-3-methylaniline] | 1020 nM | – | > 10000 nM
3 | COc1ccc(N(C)C(=O)c2ccc3c(c2)c(-c2ccc(N)cc2C)nn3C)cc1 [compound 26, 3-(4-Amino-2-methylphenyl)-N-(4-methoxyphenyl)-N,1-dimethyl-1H-indazole-5-carboxamide] | > 10000 nM | – | > 1000 nM
4 | CNC(=O)c1cc(NC(=O)c2ccc3c(c2)c(-c2ccc(N)cc2C)nn3C)ccc1C [compound 22, 3-(4-Amino-2-methylphenyl)-1-methyl-N-(4-methyl-3-(methylcarbamoyl)phenyl)-1H-indazole-5-carboxamide] | > 10000 nM | high mouse microsomal stability | 18 nM
5 | Cc1ccc(-c2ccc3c(c2)c(-c2ccc(N)cc2C)nn3C)cn1 [compound 79, 3-Methyl-4-(1-methyl-5-(6-methylpyridin-3-yl)-1H-indazol-3-yl)aniline] | 3210 nM | – | > 10000 nM
6 | CNC(=O)c1ccc2c(c1)c(-c1cc3ccccc3n1C)nn2C [compound 67, N,1-Dimethyl-3-(1-methyl-1H-indol-2-yl)-1H-indazole-5-carboxamide] | > 10000 nM | – | 261 nM
7 | CNC(=O)c1ccc(C(=O)Nc2cc(NC(=O)c3ccc4c(c3)c(-c3cnc(N)cc3C)nn4C)ccc2C)cc1 [compound 15] | – | high mouse microsomal stability | 22 nM
8 | Cc1cc(N)ccc1-c1nn(C)c2ccc(-c3cccnc3)cc12 [compound 78, 3-Methyl-4-(1-methyl-5-(pyridin-3-yl)-1H-indazol-3-yl)aniline] | 2440 nM | – | > 10000 nM
9 | COc1ccc(NC(=O)c2ccc3c(c2)c(-c2ccc(N)cc2C)nn3C)cc1 [compound 24, 3-(4-Amino-2-methylphenyl)-N-(4-methoxyphenyl)-1-methyl-1H-indazole-5-carboxamide] | > 10000 nM | – | 54 nM
10 | CC(=O)Nc1cc(NC(=O)c2ccc3c(c2)c(-c2ccc(N)nc2)nn3C)ccc1C [compound 17, N-(3-Acetamido-4-methylphenyl)-3-(6-aminopyridin-3-yl)-1-methyl-1H-indazole-5-carboxamide] | > 10000 nM | high mouse microsomal stability | 47 nM
11 | Cc1cc(N)ccc1-c1nn(C)c2ccc(C(=O)Nc3ccc(OCC4CC4)cc3)cc12 [compound 65, 3-(4-Amino-2-methylphenyl)-N-(4-(cyclopropylmethoxy)phenyl)-1-methyl-1H-indazole-5-carboxamide] | > 10000 nM | – | 98 nM
12 | CCn1nc(-c2ccc(N)nc2)c2cc(C(=O)Nc3ccc(C)c(NC(C)=O)c3)ccc21 [compound 18, N-(3-Acetamido-4-methylphenyl)-3-(6-aminopyridin-3-yl)-1-ethyl-1H-indazole-5-carboxamide] | > 10000 nM | – | 79 nM
13 | CNC(=O)c1ccc(C(=O)Nc2cc(NC(=O)c3ccc4c(c3)c(-c3cnc(N)nc3)nn4C)ccc2C)cc1 [compound 13, N^1-(5-(3-(2-Aminopyrimidin-5-yl)-1-methyl-1H-indazole-5-carboxamido)-2-methylphenyl)-N^4-methylterephthalamide] | > 10000 nM | – | 139 nM
